Measurements reported in US10174355B2, “Method for glycosylation of ginsenoside using a glycosyltransferase derived from panax ginseng” (KOREA ADVANCED INSTITUTE OF SCIENCE AND TECHNOLOGY, priority 2014, dated 2019).

Tests used:
PgUGT71A1 = experiment: In-vitro glycosyltransferase assay of recombinant PgUGT71A1 with ginsenoside substrates and UDP-glucose; format: biochemical, Panax ginseng; settings: for conversion by PgUGT71A1 (product formed), HPLC / conversion by PgUGT71A1 (product formed), TLC: ginsenoside 5 mM, UDP-glucose 50 mM, 35° C., 12 hours; for conversion by PgUGT71A1 (product formed), HPLC: FIG. 2 bottom; for conversion by PgUGT71A1 (product formed), TLC: FIG. 2 top; for reaction with PgUGT71A1 confirmed by thin-layer chromatography: screen of 9 ginsenosides incubated with recombinant PgUGT71A1 in the presence of UDP-glucose; for conversion by PgUGT71A1 (product formed), TLC / reaction with PgUGT71A1 confirmed by thin-layer chromatography: TLC
Procedure: A glycosyltransferase assay was conducted in a reaction buffer (10 mM PBS buffer, pH 7) containing the purified PgUGT71A1 (30 μg), a ginsenoside compound (5 mM) and UDP-glucose (50 mM). For this assay, 4 different types of ginsenosides, i.e., protopanaxadiol (PPD), protopanaxatriol (PPT), Rh2 and Rg3, were caused to react the enzyme of the present disclosure.
The reaction mixture was incubated at 35° C. for 12 hours and the resulting products were analyzed by thin-layer chromatography (TLC) or high-performance liquid chromatography (HPLC).
The TLC analysis was performed using a mobile phase (acetone:methanol:DDW=65:35:10 vol/vol) and a 60F254 silica gel plate (Merck, Germany). The resolved product on the TLC plate was detected by spraying 10% (vol/vol) sulfuric acid (H2SO4) and heating at 110° C. for 5 minutes.
The HPLC analysis was performed using an ODS(2) C18 column (Phenomenex, USA). The condition of gradient application of water and acetonitrile was as follows: flow rate=1 mL/min, 0 minute, 68% water and 32% acetonitrile; 8 minutes, 35% water and 65% acetonitrile; 12 minutes, 0% water and 100% acetonitrile; 20 minutes, 0% water and 100% acetonitrile; 20.1 minutes, 68% water and 32% acetonitrile; and 28 minutes, 68% water and 32% acetonitrile.
The ginsenosides were detected by monitoring at a wavelength of 203 nm using a UV detector (Agilent, USA).
First, the recombinant PgUGT of Example 1, PgUGT71A1, was incubated with 9 different types of ginsenosides (PPD, Rh2, Rg3, C—K, F2, Rd, PPT, F1, and Rh1) in the presence of UDP-glucose.
In order to confirm the result again, 4 different types of ginsenosides (PPD, PPT, Rh2, and Rg3) were incubated with PgUGT71A1, and the products converted by the recombinant PgUGT71A1 were analyzed by TLC. The result is shown at the top of FIG. 2. The result was confirmed by comparing the locations of the migrating spots with those of PPD, PPT, Rh2, Rg3, C—K, F2, Rd, and F1 used as standard samples.

PgUGT71A1 expression = experiment: Expression of PgUGT71A1 in ginseng leaves and roots after methyl jasmonate treatment (real-time PCR, NGS); format: in vivo, Panax ginseng; settings: 200 μM MeJA sprayed onto leaves of 15-month-old ginseng daily for 5 days, sampled 6th day, FIGS. 3 and 4
Procedure: Total RNA was isolated from the leaf or root of 15-month-old ginseng using the Spectrum Plant Total RNA kit (Sigma-Aldrich). 200 μM methyl jasmonate (MeJA) was sprayed onto the leaves of ginseng every day for a total of 5 days and samples were collected on the 6th day. 1 μg of the total RNA was used for cDNA synthesis.
The expression level of different genes was examined by quantitative RT-PCR using the primer sets listed in Table 1, and the result was normalized to the expression level of tubulin.
RNA was extracted from the leaf and root of ginseng which had been treated and not treated with MeJA, and a cDNA library was constructed from 1 μg of the total RNA using the TruSeq RNA library kit. Following polyA-selected RNA extraction, RNA fragmentation and random hexamer-primed reverse transcription, 100 nt paired-end sequencing was conducted using Illumina HiSeq2000.
The resulting sequences were subjected to de novo transcriptome assembly using the Trinity (2011-11-26 version) program. The produced contigs (transcripts) were analyzed using Blast (version 2.2.25+). The GO database (released on 20-04-2012) and the NR database of NCBI (download date: 2012/05/07) were used. […] The expression level was expressed as fragments per kilobase of exon per million fragments mapped (FPKM) with a program released by the Trinity group using the RSEM algorithm. […]

SMILES | conversion by PgUGT71A1 (product formed), HPLC (PgUGT71A1) | conversion by PgUGT71A1 (product formed), TLC (PgUGT71A1) | reaction with PgUGT71A1 confirmed by thin-layer chromatography (PgUGT71A1) | expression of PgUGT71A1 after MeJA treatment (PgUGT71A1 expression)
CC(C)=CCCC(C)(O)[C@H]1CC[C@]2(C)[C@@H]1[C@H](O)C[C@@H]1[C@@]3(C)CC[C@H](O)C(C)(C)[C@@H]3CC[C@]12C (stereo in doubt) [PPD, protopanaxadiol] | converted PPD to C—K | converted PPD to compound K (C—K) | reaction occurred | –
CC/C=C\CC1C(=O)CCC1CC(=O)OC (stereo not shown) [MeJA, methyl jasmonate] | – | – | – | significantly enhanced
CC(C)=CCC[C@](C)(O)[C@H]1CC[C@]2(C)[C@@H]1[C@H](O)C[C@@H]1[C@@]3(C)CC[C@H](O[C@@H]4O[C@H](CO)[C@@H](O)[C@H](O)[C@H]4O[C@@H]4O[C@H](CO)[C@@H](O)[C@H](O)[C@H]4O)C(C)(C)[C@@H]3CC[C@]12C [Rg3] | Rg3 to Rd | Rg3 to Rd | reaction occurred | –
CC(C)=CCC[C@](C)(O)[C@H]1CC[C@]2(C)[C@@H]1[C@H](O)C[C@@H]1[C@@]3(C)CC[C@H](O)C(C)(C)[C@@H]3[C@@H](O)C[C@]12C [PPT, protopanaxatriol] | PPT to F1 | PPT to F1 | reaction occurred | –
CC(C)=CCC[C@](C)(O)[C@H]1CC[C@]2(C)[C@@H]1[C@H](O)C[C@@H]1[C@@]3(C)CC[C@H](O[C@@H]4O[C@H](CO)[C@@H](O)[C@H](O)[C@H]4O)C(C)(C)[C@@H]3CC[C@]12C [Rh2] | Rh2 to F2 | Rh2 to F2 | reaction occurred | –
